Results taken from publication PMC10384874, “The Expression of Antibacterial Peptide Turgencin A in Pichia pastoris and an Analysis of Its Antibacterial Activity” (Molecules, 2023).
No end group written: not given here.

Columns and labels:
S. aureus ATCC25923 [1] = assay: pH stability, read out by agar well diffusion assay; type: physicochemical, Staphylococcus aureus; settings: 13.7 μg·mL^−1; 100 mM buffers pH 2, 4, 6, 8, 10; 37 °C, 4 h; inhibition circle against S. aureus ATCC25923 after 12 h; n = 3
Protocol: (§1) The test bacterial strain was seeded into an LB liquid medium and cultured at 37 °C until the OD600 value reached 1. In total, 50 μL of bacteria was mixed with the 15 mL molten LB medium (1% peptone, 1% NaCl, and 0.5% yeast extract) at 25 °C and allowed to solidify. Holes were punched with sterile gun heads. Subsequently, 50 μL of the fermentation supernatant was added to the holes. Gentamicin (Gen) at 50 µg·mL^−1 was used as the positive control. The antibacterial peptide SC3, which was not active in the laboratory, was used as the negative control.
(§2) The rTurgencin A freeze-dried fermentation supernatant was dissolved in different buffers. The contents were all 200 mg·mL^−1. Therefore, the concentrations of rTurgencin A in this experiment were all 13.7 μg·mL^−1.
The rTurgencin A freeze-dried fermentation supernatant was dissolved in a glycine solution at a pH of 2, a sodium acetate solution at a pH of 4, a Tris-HCl solution at a pH of 6, a Tris-HCl solution at a pH of 8, and a glycine solution at a pH of 10. The final concentrations of the buffer solution were all 100 mM. Then, the samples were treated at 37 °C for 4 h and subjected to the agar well diffusion assay. Twelve hours later, the inhibition circle was observed. The negative control was a buffer solution of different pHs.

S. aureus ATCC25923 [2] = assay: Protease stability, read out by agar well diffusion assay; type: in vitro ADME, Staphylococcus aureus; settings: 2 h, 13.7 μg·mL^−1, inhibition circle against S. aureus ATCC25923, n = 3
Protocol: as §1, §2
The rTurgencin A freeze-dried fermentation supernatant was dissolved in buffers of a glycine solution at a pH of 2, a PBS solution at a pH of 6, a Tris-HCl solution at a pH of 7, and a Tris-HCl solution at a pH of 8. The final concentrations of the buffer solution were all 100 mM. Pepsin was added to the solution at a pH of 2, papain at a pH of 6, proteinase K at a pH of 7, and trypsin at a pH of 8. The protease concentrations were all 1 mg·mL^−1. The mixtures of 0.24 U of different protease solutions and rTurgencin A were reacted at 37 °C for 2 h. The samples were then subjected to an agar well diffusion assay. Twelve hours later, the inhibition circle was observed. The negative control was different protease solutions.

S. aureus ATCC25923 [3] = assay: Total nucleotide leakage; type: cell-based, Staphylococcus aureus; settings: positive control 0.1% Triton X-100, 4 h
Protocol: The total nucleotide leakage associated with the peptide activity was analyzed according to the protocol described by Shwaiki et al.. We detected the total nucleotide leakage of the effect of Turgencin A on the cell membrane of S. aureus ATCC25923. The OD of each concentration was measured at 260 nm after four hours of contact reaction. The positive and negative controls were 0.1% Triton X-100 and water, respectively.

[4] = Antibacterial activity of the nickel column purified product; type: cell-based; settings: nickel column purified product after dialysis of the replacement solution
Protocol: For the affinity purification with a nickel column, the Ni NTA Beads 6FF filler (Smart-Lifesciences, Changzhou, China) was added to the column, and the filler was rinsed twice with distilled water to remove ethanol, followed by two rinses with binding buffer (50 mM Tris-HCl pH = 7.9, 500 mM NaCl, and 10 mM Imidazole). The fermentation supernatant was treated with a 0.45 μm membrane filter, added to the nickel column, and combined with filler for 1 h in a low-speed shaker at 4 °C. The flow solution was collected and rinsed with binding buffer (50 mM Tris-HCl pH = 7.9, 500 mM NaCl, and 10 mM Imidazole) three times to wash off unbound proteins. Elution buffer (50 mM Tris-HCl pH = 7.9, 500 mM NaCl, and 1 M imidazole) was added and the eluent of the target protein was collected. Finally, the eluent was dialyzed in 0.01 M PBS for 12 h at a low temperature.

[5] = test system: L. monocytogenes ATCC21633; assay: Minimum inhibitory concentration (MIC) determination; type: cell-based, Listeria monocytogenes; settings: L. monocytogenes (ATCC 21633); 96-well plate, LB, fermentation supernatant diluted to 1-6 μg·mL^−1; lowest peptide concentration with no bacterial growth; n = 3
Protocol: (§3) A single colony of the tested bacteria was picked to LB liquid medium and incubated at 37 °C until the OD600 reached about 1. This test bacteria solution was diluted 1000 times. The fermentation supernatant was serially diluted in a 96-well plate using replacement buffer to 1, 2, 3, 4, 5, and 6 μg·mL^−1 concentrations. Then, 20 μL of the diluted peptide and 100 μL of the test bacterium were added to each well. The negative control and positive control were […], respectively. The MIC value was defined as the lowest peptide concentration associated with no bacterial growth. In this study, the MIC values of Turgencin A were determined against S. aureus ATCC25923, Salmonella spp. ATCC10467, E. coli ATCC10305, E. Coli O157 ATCC35150, L. monocytogenes ATCC21633, and B. subtilis ATCC6633.

E. coli O157 ATCC35150 = assay: as above; type: cell-based, Escherichia coli O157; settings: E. coli O157 (ATCC 35150); 96-well plate, LB, fermentation supernatant diluted to 1-6 μg·mL^−1; lowest peptide concentration with no bacterial growth; n = 3
Protocol: as §3

S. aureus ATCC25923 [6] = assay: Stability in salt solutions, read out by agar well diffusion assay; type: physicochemical, Staphylococcus aureus; settings: 5 mM MgCl2, 50 mM MgCl2, 50 mM KCl and 150 mM KCl; 13.7 μg·mL^−1; inhibition circle against S. aureus ATCC25923; n = 3
Protocol: as §1, §2
The rTurgencin A freeze-dried fermentation supernatant was dissolved in 5 mM MgCl2, 50 mM MgCl2, 50 mM KCl, and 150 mM KCl, respectively. Then, the samples were subjected to an agar well diffusion assay. Twelve hours later, the inhibition circle was observed. The negative control was the different salt solutions.

[7] = test system: total food spoilage bacteria in pork; assay: Pork preservation experiment, total number of bacteria; settings: pork treated with rTurgencin A at 10 μg·mL^−1, stored at 4 °C; days 0, 1, 3, 5; control group increasing
Protocol: The fermentation supernatant was passed through a 0.22 μm membrane filter and transferred to a beaker. Fresh pork hind leg meat was cut into 5 g pieces and placed in the above solution, soaked for 1 min in each direction, shaken so that the surface of the meat was fully exposed to the solution, removed, placed on cling film to drain, left for 5 min at room temperature, turned over, and left for another 5 min to remove excess water so that the meat neither dripped nor was too dry. […] The colony count is expressed by colony-forming units (CFU), and a common logarithm determines the total number of colonies. SC3 served as the negative control.

E. coli ATCC10305 = assay: Minimum inhibitory concentration (MIC) determination; type: cell-based, Escherichia coli; settings: E. coli (ATCC 10305); 96-well plate, LB, fermentation supernatant diluted to 1-6 μg·mL^−1; lowest peptide concentration with no bacterial growth; n = 3
Protocol: as §3

[8] = test system: Salmonella spp. ATCC10467; assay: as above; type: cell-based; settings: Salmonella spp. (ATCC 10467); 96-well plate, LB, fermentation supernatant diluted to 1-6 μg·mL^−1; lowest peptide concentration with no bacterial growth; n = 3
Protocol: as §3

[9] = Pork preservation experiment, flesh color; settings: pork treated with rTurgencin A at 10 μg·mL^−1, stored at 4 °C; days 0, 2, 4, 6; control deteriorated on day 4
Protocol: The fermentation supernatant was passed through a 0.22 μm membrane filter and transferred to a beaker. Fresh pork hind leg meat was cut into 5 g pieces and placed in the above solution, soaked for 1 min in each direction, shaken so that the surface of the meat was fully exposed to the solution, removed, placed on cling film to drain, left for 5 min at room temperature, turned over, and left for another 5 min to remove excess water so that the meat neither dripped nor was too dry. The meat was then wrapped in plastic and stored in a refrigerator at 4 °C for seven days. During this period, the pork samples were tested for colony counts every 48 h, according to the method of GB 4789-2022 [42]. The colony count is expressed by colony-forming units (CFU), and a common logarithm determines the total number of colonies. SC3 served as the negative control.

[10] = test system: Gram-positive and Gram-negative bacteria; assay: Agar well diffusion assay, inhibition profiling of six strains; type: cell-based; settings: fermentation supernatant, 9 μg·mL^−1 rTurgencin A; B. subtilis, S. aureus, L. monocytogenes, Salmonella spp., E. coli O157, E. coli
Protocol: as §1

B. subtilis ATCC6633 = assay: Minimum inhibitory concentration (MIC) determination; type: cell-based, Bacillus subtilis; settings: B. subtilis (ATCC 6633); 96-well plate, LB, fermentation supernatant diluted to 1-6 μg·mL^−1; lowest peptide concentration with no bacterial growth; n = 3
Protocol: as §3

[11] = test system: L. monocytogenes ATCC21633; assay: Agar well diffusion assay; type: cell-based, Listeria monocytogenes; settings: 9 μg·mL^−1 rTurgencin A fermentation supernatant, 50 μL per well, against 50 μg·mL^−1 gentamicin
Protocol: as §1

S. aureus ATCC25923 [12] = assay: Agar well diffusion assay; type: cell-based, Staphylococcus aureus; settings: 9 μg·mL^−1 rTurgencin A fermentation supernatant, 50 μL per well, against 50 μg·mL^−1 gentamicin
Protocol: as §1

S. aureus ATCC25923 [13] = assay: Temperature stability, read out by agar well diffusion assay; type: physicochemical, Staphylococcus aureus; settings: 13.7 μg·mL^−1 in 50 mM pH 7.4 Tris-HCl, inhibition circle against S. aureus ATCC25923 after 12 h, n = 3
Protocol: as §1, §2
The rTurgencin A freeze-dried fermentation supernatant was dissolved in a 50 mM pH 7.4 Tris-HCl solution and then treated at 4 °C, 25 °C, 37 °C, 65 °C, and 90 °C for 1 h. The samples were subjected to an agar well diffusion assay. Twelve hours later, the inhibition circle was observed. The negative control was a 50 mM pH 7.4 Tris-HCl solution after treatment for 1 h at the same temperature.

S. aureus ATCC25923 [14] = assay: Minimum inhibitory concentration (MIC) determination; type: cell-based, Staphylococcus aureus; settings: S. aureus (ATCC 25923); 96-well plate, LB, fermentation supernatant diluted to 1-6 μg·mL^−1; lowest peptide concentration with no bacterial growth; n = 3
Protocol: as §3

## GPKTKAACKMACKLATCGKKPGGWKCKLCELGCDAV (disulfide (positions not given here)) [rTurgencin A, His-tagged recombinant Turgencin A expressed in Pichia pastoris; tested as yeast fermentation supernatant, concentration by ELISA]
S. aureus ATCC25923 [1]
  reduction in inhibitory action at low pHs: 40%
  stability at neutral and high pH levels: good stability
S. aureus ATCC25923 [2]; papain 1 mg·mL^−1 (0.24 U), 100 mM PBS pH 6, 37 °C
  stability in papain: good stability
S. aureus ATCC25923 [2]; pepsin 1 mg·mL^−1 (0.24 U), 100 mM glycine pH 2, 37 °C
  antibacterial activity remaining in the presence of pepsin: 70%
S. aureus ATCC25923 [2]; proteinase K 1 mg·mL^−1 (0.24 U), 100 mM Tris-HCl pH 7, 37 °C
  stability in k-protease: good stability
S. aureus ATCC25923 [2]; trypsin 1 mg·mL^−1 (0.24 U), 100 mM Tris-HCl pH 8, 37 °C
  stability in trypsin: good stability
S. aureus ATCC25923 [3]; 1 × MIC
  total nucleotide leakage relative to the positive control: 34.3%
S. aureus ATCC25923 [3]; 2 × MIC
  total nucleotide leakage relative to the positive control: 77.3%
S. aureus ATCC25923 [3]; 3 × MIC
  total nucleotide leakage relative to the positive control: 131.5%
[4]
  antibacterial activity of the purified product: deficient antibacterial activity
[5]
  MIC: 3 µg/mL
E. coli O157 ATCC35150
  MIC: 5 µg/mL
S. aureus ATCC25923 [6]
  antibacterial activity in salt solutions: not affected
[7]
  bacterial colonies in pork over storage days: showed a decreasing trend with an increase in days
E. coli ATCC10305
  MIC: 5 µg/mL
[8]
  MIC: 4 µg/mL
[9]
  color of the pork flesh: still bright on the fourth day
[10]
  antibacterial activity (inhibition profiling): provided antibacterial activity against Gram-positive and Gram-negative bacteria
B. subtilis ATCC6633
  MIC: 2 µg/mL
[11]
  inhibition circle diameter compared with gentamicin: more significant than 50 μg·mL^−1 gentamicin
S. aureus ATCC25923 [12]
  inhibition circle diameter compared with gentamicin: more significant than 50 μg·mL^−1 gentamicin
S. aureus ATCC25923 [13]; 4 °C, 25 °C and 37 °C for 1 h
  stability at low and room temperatures: good stability
S. aureus ATCC25923 [13]; 90 °C for 1 h
  diameter of the inhibition circle as % of the maximum inhibition circle diameter: 55%
S. aureus ATCC25923 [14]
  MIC: 3 µg/mL
